What was measured:
[1] = target: T1, human β-Secretase (AA 1-AA 460), sBACE-Fc (Homo sapiens, UniProt P56817); assay: Diluted TR-FRET assay; type: biochemical; details: footnote a: diluted FRET assay, 50 times less enzyme, 6.5 h reaction time at r.t.; read-out: IC50 in TR-FRET assay (IC50 from the diluted FRET assay)
T1 construct: soluble part of the human β-Secretase (AA 1-AA 460) was cloned; Fc domain of IgG1; made in house
Method: (§1) The cDNA for the soluble part of the human β-Secretase (AA 1-AA 460) was cloned using the ASP2-Fc10-1-IRES-GFP-neoK mammalian expression vector. The gene was fused to the Fc domain of IgG1 (affinity tag) and stably cloned into HEK 293 cells.
The robotic systems Biomek FX and Velocity 11 were used for all liquid handling and the enzyme and substrate solutions were kept on ice until they were placed in the robotic system. Enzyme (9 μA) was added to the plate then 1 μA of compound in dimethylsulphoxide was added, mixed and pre-incubated for 10 minutes. Substrate (10 μA) was then added, mixed and the reaction proceeded for 15 minutes at r.t. The reaction was stopped with the addition of Stop solution (7 μl, NaAcetate, pH 9). […] The dimethylsulphoxide control, instead of test compound, defined the 100% activity level and 0% activity was defined by wells lacking enzyme (replaced with reaction buffer).

[2] = system: sAPPβ release, SH-SY5Y cells; assay: sAPPβ release assay; type: cell-based; details: Homo sapiens, compounds incubated 17 h
Method: SH-SY5Y cells were cultured in DMEM/F-12 with Glutamax, 10% FCS and 1% non-essential amino acids and cryopreserved and stored at −140° C. at a concentration of 7.5−9.5×10^6 cells per vial. Thaw cells and seed at a conc. of around 10000 cells/well in DMEM/F-12 with Glutamax, 10% FCS and 1% non-essential amino acids to a 384-well tissue culture treated plate, […] cell susp/well. The cell plates were then incubated for 7-24 h at 37° C., 5% CO2. The cell medium was removed, followed by addition of 30 μL compound diluted in DMEM/F-12 with Glutamax, 10% FCS, 1% non-essential amino acids and 1% PeSt to a final conc. of 1% DMSO. The compounds were incubated with the cells for 17 h (overnight) at 37° C., 5% CO2. Meso Scale Discovery (MSD) plates were used for the detection of sAPPβ release. MSD sAPPβ plates were blocked in 1% BSA in Tris wash buffer (40 μL/well) for 1 h on shake at r.t. and washed 1 time in Tris wash buffer (40 μL/well). 20 μL of medium was transferred to the pre-blocked and washed is MSD sAPPβ microplates, and the cell plates were further used in an ATP assay to measure cytotoxicity. The MSD plates were incubated with shaking at r.t. for 2 h and the media discarded. 10 μL detection antibody was added (1 nM) per well followed by incubation with shaking at r.t. for 2 h and then discarded. 40 μL Read Buffer was added per well and the plates were read in a SECTOR Imager.

[3] = target: T1, human β-Secretase (AA 1-AA 460), sBACE-Fc; assay: TR-FRET assay; type: biochemical; details: enzyme 2.7 μg/ml, substrate 100 nM, pH4.5, 15 minutes at r.t.
Method: The β-secretase enzyme used in the TR-FRET is prepared as follows:
as §1
The enzyme (truncated form) was diluted to 6 μg/mL (stock 1.3 mg/mL) and the substrate (Europium)[…](Qsy7) to 200 nM (stock 120 μM) in reaction buffer (NaAcetate, is chaps, triton x-100, EDTA pH4.5). The robotic systems Biomek FX and Velocity 11 were used for all liquid handling and the enzyme and substrate solutions were kept on ice until they were placed in the robotic system. Enzyme (9 μA) was added to the plate then 1 μA of compound in dimethylsulphoxide was added, mixed and pre-incubated for 10 minutes. Substrate (10 μA) was then added, mixed and the reaction proceeded for 15 minutes at r.t. The reaction was stopped with the addition of Stop solution (7 μl, NaAcetate, pH 9). The fluorescence of the product was measured on a Victor II plate reader with an excitation wavelength of 340 nm and an emission wavelength of 615 nm. The assay was performed in a Costar 384 well round bottom, low volume, non-binding surface plate (Corning #3676). […] The dimethylsulphoxide control, instead of test compound, defined the 100% activity level and 0% activity was defined by wells lacking enzyme (replaced with reaction buffer).

T1 sequence (P56817 22-460): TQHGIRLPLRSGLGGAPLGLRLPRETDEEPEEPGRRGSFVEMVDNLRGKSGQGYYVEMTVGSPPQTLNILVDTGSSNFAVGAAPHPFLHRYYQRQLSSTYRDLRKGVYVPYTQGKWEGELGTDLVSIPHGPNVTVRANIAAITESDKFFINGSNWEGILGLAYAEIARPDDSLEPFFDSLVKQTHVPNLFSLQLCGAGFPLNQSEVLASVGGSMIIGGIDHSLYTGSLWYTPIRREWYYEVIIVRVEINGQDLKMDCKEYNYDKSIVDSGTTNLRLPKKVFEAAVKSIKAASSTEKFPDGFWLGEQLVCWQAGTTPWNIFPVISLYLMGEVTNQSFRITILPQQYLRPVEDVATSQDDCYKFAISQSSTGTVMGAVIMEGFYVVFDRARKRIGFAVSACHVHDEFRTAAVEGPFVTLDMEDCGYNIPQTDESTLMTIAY

Row | IC50 [1] | IC50 [2] | IC50 [3] | SMILES
1 | 4 nM | 0.7 nM | – | CC#Cc1cncc(-c2cc(C3(c4cc(C)c(=O)n(CC)c4)N=C(N)c4c(F)cccc43)ccn2)c1 (single isomer, unassigned) [Example 26, 5-(3-amino-4-fluoro-1-(5′-(prop-1-ynyl)-2,3′-bipyridin-4-yl)-1H-isoindol-1-yl)-1-ethyl-3-methylpyridin-2(1H)-one]
2 | – | – | 8350 nM | CC#Cc1cncc(-c2cc(C3(c4cc(C)c(=O)n(CC)c4)N=C(N)c4c(F)cccc43)ccn2)c1 (single isomer, unassigned) [Example 26a, 5-(3-amino-4-fluoro-1-(5′-(prop-1-ynyl)-2,3′-bipyridin-4-yl)-1H-isoindol-1-yl)-1-ethyl-3-methylpyridin-2(1H)-one]
3 | 6 nM | 2 nM | – | CC#Cc1cncc(-c2cccc([C@@]3(c4cc(C)c(=O)n(C)c4)N=C(N)c4c(F)cccc43)c2)c1 [Example 1, (R)-5-(3-Amino-4-fluoro-1-(3-(5-(prop-1-ynyl)pyridin-3-yl)phenyl)-1H-isoindol-1-yl)-1,3-dimethylpyridin-2(1H)-one]
4 | – | 2 nM | 57 nM | CC#Cc1cncc(-c2cc(C3(c4cc(C)c(=O)n(CC)c4)N=C(N)c4c(F)cccc43)ccn2)c1 (centres unmarked) [Example 2, 5-(3-Amino-4-fluoro-1-(5′-(prop-1-ynyl)-2,3′-bipyridin-4-yl)-1H-isoindol-1-yl)-1-ethyl-3-methylpyridin-2(1H)-one]
5 | – | 55 nM | 51 nM | CCn1cc([C@]2(c3cccc(-c4cncc(C)c4F)c3)N=C(N)c3c(F)cccc32)cc(C)c1=O [Example 4, (R)-5-(3-Amino-4-fluoro-1-(3-(4-fluoro-5-methylpyridin-3-yl)phenyl)-1H-isoindol-1-yl)-1-ethyl-3-methylpyridin-2(1H)-one]
6 | – | 10 nM | 58 nM | Cc1cc(C2(c3cccc(-c4cncc(C#N)c4)c3)N=C(N)c3c(F)cccc32)cn(C(C)C)c1=O (centres unmarked) [Example 5, 5-(3-(3-Amino-4-fluoro-1-(1-isopropyl-5-methyl-6-oxo-1,6-dihydropyridin-3-yl)-1H-isoindol-1-yl)phenyl)nicotinonitrile]
7 | 16 nM | 9 nM | – | CCn1cc(C2(c3cccc(-c4cncnc4)c3)N=C(N)c3c(F)cccc32)cc(C)c1=O (centres unmarked) [Example 6, 5-(3-Amino-4-fluoro-1-(3-(pyrimidin-5-yl)phenyl)-1H-isoindol-1-yl)-1-ethyl-3-methylpyridin-2(1H)-one]
8 | – | 4 nM | 38 nM | Cc1cc(C2(c3cccc(-c4cncc(F)c4)c3)N=C(N)c3c(F)cccc32)cn(C(C)C)c1=O (centres unmarked) [Example 7, 5-(3-Amino-4-fluoro-1-(3-(5-fluoropyridin-3-yl)phenyl)-1H-isoindol-1-yl)-1-isopropyl-3-methylpyridin-2(1H)-one]
9 | – | 20 nM | 89 nM | Cn1cc(C2(c3cccc(-c4cncc(C#N)c4)c3)N=C(N)c3c(F)cccc32)cc(C(F)(F)F)c1=O (centres unmarked) [Example 10, 5-(3-(3-Amino-4-fluoro-1-(1-methyl-6-oxo-5-(trifluoromethyl)-1,6-dihydropyridin-3-yl)-1H-isoindol-1-yl)phenyl)nicotinonitrile]
10 | – | 46 nM | 54 nM | COc1cncc(-c2cccc(C3(c4cc(C(F)(F)F)c(=O)n(C)c4)N=C(N)c4c(F)cccc43)c2)c1 (centres unmarked) [Example 11, 5-(3-Amino-4-fluoro-1-(3-(5-methoxypyridin-3-yl)phenyl)-1H-isoindol-1-yl)-1-methyl-3-(trifluoromethyl)pyridin-2(1H)-one]
11 | – | 8 nM | 62 nM | Cn1cc(C2(c3cccc(-c4cncc(F)c4)c3)N=C(N)c3c(F)cccc32)cc(C(F)(F)F)c1=O (centres unmarked) [Example 12, 5-(3-Amino-4-fluoro-1-(3-(5-fluoropyridin-3-yl)phenyl)-1H-isoindol-1-yl)-1-methyl-3-(trifluoromethyl)pyridin-2(1H)-one]
12 | – | 24 nM | 81 nM | Cn1cc(C2(c3cccc(-c4cncnc4)c3)N=C(N)c3c(F)cccc32)cc(C(F)(F)F)c1=O (centres unmarked) [Example 13, 5-(3-Amino-4-fluoro-1-(3-(pyrimidin-5-yl)phenyl)-1H-isoindol-1-yl)-1-methyl-3-(trifluoromethyl)pyridin-2(1H)-one]
13 | – | 11 nM | 58 nM | Cc1cc(C2(c3cccc(-c4cncnc4)c3)N=C(N)c3c(F)cccc32)cn(C)c1=O (centres unmarked) [Example 14, 5-(3-Amino-4-fluoro-1-(3-(pyrimidin-5-yl)phenyl)-1H-isoindol-1-yl)-1,3-dimethylpyridin-2(1H)-one]
14 | – | 14 nM | 104 nM | Cc1cc(C2(c3ccnc(-c4cncc(Cl)c4)c3)N=C(N)c3c(F)cccc32)cn(C)c1=O (centres unmarked) [Example 15, 5-(3-Amino-1-(5′-chloro-2,3′-bipyridin-4-yl)-4-fluoro-1H-isoindol-1-yl)-1,3-dimethylpyridin-2(1H)-one]
15 | – | 1 nM | 59 nM | CC#Cc1cncc(-c2cc(C3(c4cc(CC)c(=O)n(CC)c4)N=C(N)c4c(F)cccc43)ccn2)c1 (centres unmarked) [Example 16, 5-(3-Amino-4-fluoro-1-(5′-(prop-1-ynyl)-2,3′-bipyridin-4-yl)-1H-isoindol-1-yl)-1,3-diethylpyridin-2(1H)-one]
16 | – | 17 nM | 66 nM | Cc1cc(C2(c3cccc(-c4cncc(C#N)c4)c3)N=C(N)c3c(F)cccc32)cn(C)c1=O (centres unmarked) [Example 17, 5-(3-(3-Amino-1-(1,5-dimethyl-6-oxo-1,6-dihydropyridin-3-yl)-4-fluoro-1H-isoindol-1-yl)phenyl)nicotinonitrile]
17 | – | 8 nM | 26 nM | Cc1cc(C2(c3cccc(-c4cncc(Cl)c4)c3)N=C(N)c3c(F)cccc32)cn(C)c1=O (centres unmarked) [Example 18, 5-(3-Amino-1-(3-(5-chloropyridin-3-yl)phenyl)-4-fluoro-1H-isoindol-1-yl)-1,3-dimethylpyridin-2(1H)-one]
18 | – | 3 nM | 61 nM | Cc1cc(C2(c3cccc(-c4cncc(F)c4)c3)N=C(N)c3c(F)cccc32)cn(C)c1=O (centres unmarked) [Example 19, 5-(3-Amino-4-fluoro-1-(3-(5-fluoropyridin-3-yl)phenyl)-1H-isoindol-1-yl)-1,3-dimethylpyridin-2(1H)-one]
19 | – | 6 nM | 31 nM | COc1cncc(-c2cccc(C3(c4cc(C)c(=O)n(C)c4)N=C(N)c4c(F)cccc43)c2)c1 (centres unmarked) [Example 20, 5-(3-amino-4-fluoro-1-(3-(5-methoxypyridin-3-yl)phenyl)-1H-isoindol-1-yl)-1,3-dimethylpyridin-2(1H)-one]
20 | – | 9 nM | 70 nM | CCn1cc(C2(c3cccc(-c4cncc(F)c4)c3)N=C(N)c3c(F)cccc32)cc(C(F)F)c1=O (centres unmarked) [Example 22, 5-(3-Amino-4-fluoro-1-(3-(5-fluoropyridin-3-yl)phenyl)-1H-isoindol-1-yl)-3-(difluoromethyl)-1-ethylpyridin-2(1H)-one]
21 | – | 22 nM | 140 nM | CC#Cc1cccc(-c2cccc([C@@]3(c4cc(C)c(=O)n(CC)c4)N=C(N)c4c(F)cccc43)c2)n1 [Example 24, (R)-5-(3-Amino-4-fluoro-1-(3-(6-(prop-1-ynyl)pyridin-2-yl)phenyl)-1H-isoindol-1-yl)-1-ethyl-3-methylpyridin-2(1H)-one]

From patent US20120165346A1, “Compounds and their use as BACE inhibitors” (ASTRAZENECA AB, priority 2010, published 2012)
